Test results published in patent EP4603105A1, “PHARMACEUTICAL COMPOSITION CONTAINING CYCLIC COMPOUND HAVING SELECTIVE KRAS INHIBITORY EFFECT AGAINST HRAS AND NRAS” (CHUGAI SEIYAKU KABUSHIKI KAISHA, priority 2022, dated 2024).
Read-outs that look alike come from different tables or passages of the source.

What was measured:
HRAS wild-type protein = HRAS wild-type protein (Homo sapiens, UniProt P01112); assay: Binding to HRAS by surface plasmon resonance (SPR), KD and KD ratio to KRAS
How it was run: (§1)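 Compound binding is evaluated by SPR single-cycle kinetics, with concentrations added intermittently from low to high for 75 s each. Target surfaces carry GDP-loaded biotinylated Avi-RAS at about 100–300 RU, regenerated after each cycle; temperature 30°C. A 1:1 binding model gives KD.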

[1] = tested on: human lung cancer strain NCI-H441; assay: NCI-H441 cell proliferation inhibitory activity (CellTiter-Glo, 4 days); assay type: cell-based; settings: read-out: NCl-H441 IC50
How it was run: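 Proliferation was scored by […] measured after the reagent was added to cultures kept at 37°C in 5% carbon dioxide.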

[2] = biological target: GDP-bound KRAS wild-type protein (Homo sapiens, UniProt P01116); assay: Binding to KRAS by surface plasmon resonance (SPR), dissociation constant KD
Chain of GDP-bound KRAS wild-type protein (P01116 1-188 isoform P01116-2): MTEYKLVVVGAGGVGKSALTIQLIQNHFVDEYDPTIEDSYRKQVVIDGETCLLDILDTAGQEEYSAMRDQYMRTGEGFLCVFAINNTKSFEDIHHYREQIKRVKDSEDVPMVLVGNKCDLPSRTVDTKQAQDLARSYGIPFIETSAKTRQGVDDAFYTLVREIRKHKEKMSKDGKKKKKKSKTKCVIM
How it was run: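 Each cycle, GDP-bound biotin-Avi RAS was captured (~100–300 RU), compound concentrations were injected low to high for 75 s each at 100 µL/min, then the chip was regenerated. Buffer: HBS pH 7.4, 10 mM MgCl2, 10 µM GDP, 1 mM DTT, 4% DMSO; 30°C. KD from a 1:1 binding model.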

[3] = biological target: GDP-bound NRAS wild-type protein (Homo sapiens, UniProt P01111); assay: Binding to NRAS by surface plasmon resonance (SPR), KD and KD ratio to KRAS
Chain of GDP-bound NRAS wild-type protein (P01111 whole entry): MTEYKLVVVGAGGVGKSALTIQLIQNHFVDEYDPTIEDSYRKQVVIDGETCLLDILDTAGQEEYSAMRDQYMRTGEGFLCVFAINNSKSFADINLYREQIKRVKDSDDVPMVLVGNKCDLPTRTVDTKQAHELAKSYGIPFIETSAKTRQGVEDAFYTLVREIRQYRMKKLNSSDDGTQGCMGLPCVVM
How it was run: as §1

[4] = ratio of KD with respect to HRAS wild-type protein to KD with respect to KRAS
[5] = 50% proliferation inhibitory concentration, four days
[6] = Single Cycle Kinetics, 1:1 binding model
[7] = ratio of KD with respect to GDP-bound NRAS wild-type protein to KD with respect to KRAS
[8] = ratio of KD for HRAS wild-type protein to KD for KRAS
[9] = ratio of KD for GDP-bound NRAS wild-type protein to KD for KRAS

Chain of HRAS wild-type protein (P01112 whole entry): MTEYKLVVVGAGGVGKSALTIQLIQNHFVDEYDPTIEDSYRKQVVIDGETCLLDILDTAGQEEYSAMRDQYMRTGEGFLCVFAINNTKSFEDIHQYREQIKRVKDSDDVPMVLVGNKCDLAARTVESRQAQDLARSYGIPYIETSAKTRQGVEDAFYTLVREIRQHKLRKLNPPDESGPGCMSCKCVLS

Structure (SMILES) | HRAS /KRAS (HRAS wild-type protein; [4]) | IC50 [1, 5] [nM] | Kd [2, 6] [nM] | NRAS /KRAS [3, 7] | HRAS /KRAS (HRAS wild-type protein; [8]) | IC50 ([1]; NCI-H441 cells, 4 days) [nM] | Kd ([2]; Single Cycle Kinetics) [nM] | NRAS /KRAS [3, 9] | Kd ([2]; 1:1 binding model) [nM]
CCO[C@@H]1C[C@H]2C(=O)NC3(CCC3)C(=O)N(C)[C@@H](C3CCCC3)C(=O)N(C)[C@H](C(=O)N3CCOCC3)CC(=O)N(C)[C@@H](CC)C(=O)N[C@@H]([C@@H](C)CC)C(=O)N3CC[C@H]3C(=O)N(C)[C@H]3C[C@@H](C)[C@@H](C)CN(C3=O)[C@@H](Cc3ccc(C(F)(F)F)cc3)C(=O)N(C)CC(=O)N[C@@H](CCc3cc(F)c(C(F)(F)F)c(F)c3)C(=O)N2C1 [PP1351] | B (a compound having 3 or more and less than 10 is denoted as B) | 12.8 | 0.13 | A (a compound having 10 or more and less than 20 is denoted as A) |  |  |  |  | 
CCC[C@H]1C(=O)N[C@@H]([C@@H](C)CC)C(=O)N2CCCC[C@H]2C(=O)N(C)[C@H]2C/C=C\CCN(C2=O)[C@@H](Cc2ccc(C(F)(F)F)cc2)C(=O)N(C)CC(=O)N[C@@H](CCc2ccc(C(F)(F)F)c(Cl)c2)C(=O)N2C[C@H](OCC)C[C@H]2C(=O)N(C)C2(CCC2)C(=O)N(C)[C@@H](C2CCCC2)C(=O)N(C)[C@H](C(=O)N(C)C)CC(=O)N1C [PP3272] |  |  |  |  | B (a compound having 3 or more and less than 10 is denoted as B) | 19.4 | 0.96 | A (a compound having 10 or more and less than 20 is denoted as A) | 
CC[C@H](C)[C@@H]1NC(=O)[C@H](CC)N(C)C(=O)C[C@@H](C(=O)N(C)C)N(C)C(=O)[C@H](C2CCCC2)N(C)C(=O)C2(CCC2)NC(=O)[C@H](C)NC(=O)[C@H](CCc2cc(F)c(C(F)(F)F)c(F)c2)NC(=O)CN(C)C(=O)[C@H](Cc2ccc(C(F)(F)F)cc2)N2CC/C=C\C[C@@H](C2=O)N(C)C(=O)CN(C)C1=O [PP1140] | A (a compound having 10 or more and less than 20 is denoted as A) | 1780 | 0.15 | A (a compound having 10 or more and less than 20 is denoted as A) |  |  |  |  | 
CCO[C@@H]1C[C@H]2C(=O)NC3(CCC3)C(=O)N(C)[C@@H](C3CCCC3)C(=O)N(C)[C@H](C(=O)N3CCC3)CC(=O)N(C)[C@@H](CC)C(=O)N[C@@H]([C@@H](C)CC)C(=O)N(C)CC(=O)N(C)[C@H]3C/C=C\CCN(C3=O)[C@@H](CC3CCC(F)(F)CC3)C(=O)N(C)CC(=O)N[C@@H](CCc3cc(F)c(C(F)(F)F)c(F)c3)C(=O)N2C1 [PP1444] | A (a compound having 10 or more and less than 20 is denoted as A) | 103 | 0.19 | A (a compound having 10 or more and less than 20 is denoted as A) |  |  |  |  | 
C=CCN1CC(=O)N(C)[C@H]2C/C=C\CCN(C2=O)[C@@H](Cc2ccc(C(F)F)cc2)C(=O)N(C)CC(=O)N[C@@H](CCc2cc(F)c(C(F)(F)F)c(F)c2)C(=O)N2C[C@H](OC(C)C)C[C@H]2C(=O)N(C)C2(CCC2)C(=O)N(C)[C@@H](C(CC)CC)C(=O)N(C)[C@H](C(=O)N(C)C)CC(=O)N(C)[C@@H](COCCC)C(=O)N[C@@H]([C@@H](C)OCCC)C1=O [PP3486] |  |  |  |  | A (a compound having 10 or more and less than 20 is denoted as A) | 12.6 | 0.61 | A (a compound having 10 or more and less than 20 is denoted as A) | 
CCC[C@H]1C(=O)N[C@@H](C2CCCC2)C(=O)N(C)CC(=O)N(C)[C@H]2C/C=C\CCN(C2=O)[C@@H](Cc2ccc(C(F)(F)F)cc2)C(=O)N(C)CC(=O)N[C@@H](CCc2cc(F)c(C(F)(F)F)c(F)c2)C(=O)N2CC3(CC3)C[C@H]2C(=O)N(C)C2(CCC2)C(=O)N(C)[C@@H]([C@@H](C)CC)C(=O)N(C)[C@H](C(=O)N(C)C)CC(=O)N1C [PP3307] |  |  |  |  | A (a compound having 10 or more and less than 20 is denoted as A) | 25.4 | 2.4 | AA (a compound having 20 or more is denoted as AA) | 
CCC(CC)[C@H]1C(=O)N(C)[C@H](C(=O)N(C)C)CC(=O)N(C)[C@@H](COC)C(=O)N[C@@H]([C@@H](C)CC)C(=O)N2CCC[C@H]2C(=O)N(C)[C@H]2C/C=C\CCN(C2=O)[C@@H](Cc2ccc(C(F)(F)F)cc2)C(=O)N(C)CC(=O)N[C@@H](CCc2ccc(Cl)c(Cl)c2)C(=O)N2C[C@H](OC3CCC3)C[C@H]2C(=O)NC2(CC(C)(C)C2)C(=O)N1C [PP2645] |  |  |  |  | A (a compound having 10 or more and less than 20 is denoted as A) | 86.7 |  | AA (a compound having 20 or more is denoted as AA) | 1.1
CCC[C@H]1C(=O)N[C@@H](C2CCCC2)C(=O)N(C)CC(=O)N(C)[C@H]2C/C=C\CCN(C2=O)[C@@H](Cc2ccc(C(F)(F)F)cc2)C(=O)N(C)CC(=O)N[C@@H](CCc2ccc(C(F)(F)F)c(OC)c2)C(=O)N2CC3(CC3)C[C@H]2C(=O)N(C)C2(CCC2)C(=O)N(C)[C@@H](CC(C)(C)C)C(=O)N(C)[C@H](C(=O)N(C)C)CC(=O)N1C [PP3317] |  |  |  |  | B (a compound having 3 or more and less than 10 is denoted as B) | 2.5 | 0.069 | B (a compound having 3 or more and less than 10 is denoted as B) | 
